{"source": "patent US20240343734A1", "about": "“NOVEL SMALL MOLECULE INHIBITORS OF PUS7 AND USES THEREOF” (City of Hope, priority 2021, published 2024)", "test_system": "GSCs", "assay": "GSC growth (several lines, stated for GSCs in general)", "assay_type": "cell-based, human", "details": "0.5, 1, 2, 4, 8 μM", "method": "GSCs were derived from newly diagnosed grade IV GBM patients. GSCs and NSCs were maintained in spheres in DMEM-F12 medium supplemented with 2 mM L-glutamine, 27.4 mM HEPES, B27, 20 ng ml^−1 EGF, 20 ng ml^−1 FGF and 5 μg ml^−1 heparin as described (Cui, Q., et al., supra). Established GBM cells were maintained in DMEM medium supplemented with 2 mM L-glutamine and 10% FBS. All cultures were mycoplasma-free as confirmed using MycoAlert PLUS Mycoplasma Detection Kit (Lonza). GSCs or NSCs were treated with PUS7 inhibitors at indicated concentration for 72 h. GSCs were treated with IFNα at indicated doses for 6 days.\nGSC growth, sphere formation and limiting dilution assays were performed as described 9 Cui, Q., et al., supra). For growth, GSCs were seeded at 5×10^4 cells per well in 24-well plates and cultured for 7 days. Cell growth was monitored by cell counting using a hemocytometer. For sphere formation, GSCs were seeded at 1 cell per well in 96-well plates or 100 cells per well in 48-well plates and cultured for 2 weeks. Spheres were counted under microscope. For limiting dilution assay, GSCs were seeded into 96-well plates at 1, 5, 10, 20, 50 and 100 cells per well. The number of sphere-forming wells was recorded in two weeks. The limiting dilution analysis was performed using the extreme limiting dilution analysis software at http://bioinf.wehi.edu.au/software/elda."}
{"smiles": "NC(=O)c1[nH]nc([C@@H]2O[C@H](CO)[C@@H](O)[C@H]2O)c1O", "note": "[pyrazofurin]", "values": [{"measurement": "dose effect on the growth of PBT003 and PBT707 GSCs (significance)", "setting": "FIG. 17B", "value": "p<0.0001 for 0.5, 1, 2, 4, and 8 μM conditions"}, {"measurement": "dose effect on the growth of PBT0030, NSC005, and NSC010 (significance)", "setting": "FIG. 17C", "value": "p<0.0001 for 0.5, 1, 2, 4, and 8 μM conditions for PBT030 only"}]}
